According to paper PMC8348019:

Assay: head-to-tail lactamisation of linear tetramer (amino acid/peptoid hybrids) with HATU (1.5 equiv), DIPEA (8 equiv); dropwise addition of linear precursor to HATU solution
Conditions: the molecule shown is the open-chain precursor; 12-membered ring; DMF; 5.0 mM; 21.0 °C; 30.0 h; 10 steps

SMILES | ring closure, overall yield
CCCC[C@H](NC(=O)[C@H]1CCCN1C(=O)[C@@H](N)CC(C)C)C(=O)N[C@@H](Cc1ccccc1)C(=O)O [H-Leu-D-Pro-Nle-Phe-OH] | 56%
CCCC[C@H](NC(=O)[C@H]1CCCN1C(=O)[C@@H](N)Cc1ccccc1)C(=O)N[C@@H](Cc1c[nH]c2ccccc12)C(=O)O [H-Phe-D-Pro-Nle-Trp-OH] | 38%
C=CCN(CC(=O)N[C@@H](Cc1ccccc1)C(=O)O)C(=O)[C@H]1CCCN1C(=O)CNC1CCCCC1 [H-(N-cyclohexyl)Gly-D-Pro-(N-allyl)Gly-Phe-OH] | 50%
CCCC[C@H](NC(=O)[C@H]1CCCN1C(=O)[C@@H](N)CC(C)C)C(=O)N[C@@H](Cc1c[nH]c2ccccc12)C(=O)O [H-Leu-D-Pro-Nle-Trp-OH] | 36%
CC[C@H](C)[C@H](N)C(=O)N1CCC[C@@H]1C(=O)N[C@@H](COC(C)(C)C)C(=O)N[C@@H](Cc1ccccc1)C(=O)O [H-Ile-D-Pro-Ser(tBu)-Phe-OH] | 46%
CCCC[C@H](NC(=O)[C@H]1CCCN1C(=O)[C@@H](N)[C@@H](C)CC)C(=O)N[C@@H](Cc1c[nH]c2ccccc12)C(=O)O [H-Ile-D-Pro-Nle-Trp-OH] | 22%
